The subject of the experiment is Pre-adipocytes and 3T3-L1 cell. Description: Inhibitory effect on adipocyte differentiation (Oil-red O staining). The class given is cell-based. Conditions: 3T3-L1, Oil-red O staining; for IC50: day 7, IC50 determined using BioDataFit 1.02, read-out: Inhibitory Activities of Isolated Compound on Adipocyte Differentiation(IC50). The protocol: Oil-red O was dissolved in 100% isopropanol, and stirred for about 16 hrs to prepare a 0.3% Oil-red O staining solution. Distilled water was added to the solution at a ratio of 0.3% Oil-red O:distilled water=6:4 (v/v), and mixed with each other. The solution was filtered using 3M paper once, and filtered again using a 0.2 μm syringe filter.
Pre-adipocytes and 3T3-L1 cell (American Tissue Culture. Collection, ATCC) were maintained in DMEM (Dulbecco's Modified Eagle Medium, Gibco-BRL, Grand Island, N.Y., USA) supplemented with 10% bovine calf serum. 4×10^4 of cells were suspended in 0.5 ml and seeded in each well of 24-well plate. The cells were grown to confluence for 48 hrs in the same medium and the medium was replaced with DMEM containing insulin (5 μg/mL), 10 μM rosiglitazone, 1 μM dexamethasone, and 10% fetal bovine serum (FBS) to differentiate adipocytes. […] As a control group, the cells were treated with Resveratrol (Sigma-Aldrich, 3,4′,5-Trihydroxy-trans-stilbene, 5-[(1E)-2-(4-Hydroxyphenyl)ethenyl]-1,3-benzenediol), which is known to inhibit the adipocyte differentiation and prevent diabetes, dissolved in DMSO at the same concentration. The cells were then replaced with 10% FBS/DMEM supplemented with 5 μg/mL insulin after 48 hrs, and also re-treated with each compound. After 48 hrs, the medium was replaced with fresh 10% FBS/DMEM. Day 7 after induction of adipocyte differentiation, the differentiated adipocytes were examined by Oil-red O staining. After removing the culture medium, the cells were gently washed with PBS once, and fixed in 10% formalin at room temperature for 1 hr. […] To wash off the staining solution, the cells were washed with distilled water, and dried (uncapped). After image scanning, the stained cells were treated with 100% isopropanol for 10 min to wash out the staining solution. The absorbance at 500 nm was measured to compare the Oil-red O staining between the compound-treated groups and the control group.

Where two headings read alike, the source gives them in different places. Where only a bound is given, the exact number is not on record here.

Turning to `COc1ccc(CCCc2ccc(O)cc2)c(O)c1` [Broussonin A], the “inhibitory effects on adipocyte differentiation (in words)” value is listed as “showed inhibitory effects on adipocyte differentiation”.
Regarding `Cc1c(O)cc2c(c1O)C(=O)/C(=C/c1ccc(O)cc1)CO2` [Compound 1, (E)-5,7-Dihydroxy-3-(4′-hydroxybenzylidene)-6-methylchroman-4-one], for the setting “Mus musculus, 168 h”, the IC50 came out at 336 µM.
In the case of `O=C(C#Cc1ccc(O)cc1)c1ccc(O)cc1` [Compound 3, 1,3-bis(4-hydroxyphenyl)prop-2-yn-1-one], the “inhibitory effects on adipocyte differentiation (in words)” value is given as “excellent inhibitory effects on adipocyte differentiation even at lower concentration than the control group Resveratrol”. The concentration for half-maximal inhibition (IC50) (Mus musculus, 168 h) came to 5.3 µM.
With `C=C[C@H](/C=C\c1ccc(O)cc1)c1ccc(O)cc1` [Compound 5, (−)-Nyasol], the IC50 (Mus musculus, 168 h) amounted to 108 µM.
As for `C=CC(CC(=O)c1ccc(O)cc1)c1ccc(O)cc1` (stereo not drawn) [Compound 7, 1,3-bis-di-p-hydroxyphenyl-4-penten-1-one], the IC50 stood at 326 µM.
Regarding `O=C(/C=C/c1ccc(O)cc1)c1ccc(O)cc1O` [Compound 8, 2′,4′,4-Trihydroxychalcone], the “inhibitory effects on adipocyte differentiation (in words)” value was “showed inhibitory effects on adipocyte differentiation”. The IC50 (Mus musculus, 168 h) was 96.4 µM.
As to `Oc1ccc(CC2COc3cc(O)ccc3C2)cc1` (stereo not drawn) [Compound 9, 7,4′-Dihydroxyhomoisoflavane], the IC50 was > 500 µM.
As for `COc1cc(O)ccc1C(=O)/C=C/c1ccc(O)cc1` [Compound 10, 2′-O-Methylisoliquiritigenin], the “inhibitory effects on adipocyte differentiation (in words)” value is “showed inhibitory effects on adipocyte differentiation” and the IC50 was determined as 41.8 µM.
Regarding `COc1cc(O)cc2c1C(=O)CC(c1ccc(O)cc1)O2` (stereo not drawn) [Compound 12, 4′,7-Dihydroxy-5-methoxyflavanone], the IC50 (Mus musculus, 168 h) was 260 µM.
For `COc1cc(O)cc(O)c1C(=O)CCc1ccc(O)cc1` [Compound 13, 2′-O-methylphloretin], the IC50 is > 500 µM.
With `O=C(/C=C/c1ccc(O)cc1)c1ccc(O)cc1` [Compound 14, 4,4′-Dihydroxychalcon], the IC50 (Mus musculus, 168 h) is > 500 µM.
On the same count and under the same terms, as for `Oc1ccc(/C=C/c2cc(O)cc(O)c2)cc1` [Resveratrol, 3,4′,5-Trihydroxy-trans-stilbene, reference compound], the figure is 31.4 µM.
For (−)-4′-O-Methylnyasol [Compound 4], the “inhibitory effects on adipocyte differentiation (in words)” value is given as “showed inhibitory effects on adipocyte differentiation” and the IC50 worked out at 45.9 µM.
As for Broussonin A [Compound 6], the half-maximal inhibitory concentration (IC50) amounted to 74.5 µM.

As a reminder, the IC50 is the concentration that gives 50% inhibition.

These data come from patent US8431166B2, “Composition comprising the extract of Anemarrhena asphodeloides Bunge or the compounds isolated from the same for preventing and treating lipid metabolism disorder” (EWHA University-Industry Collaboration Foundation, priority 2009, dated 2013).
